Test results published in publication PMC5393024, “Discovery and characterization of natural tropolones as inhibitors of the antibacterial target CapF from Staphylococcus aureus” (Scientific Reports, 2015).

Legend:
[1] = molecular target: holo-CapF (reconstituted with Zn^2+) (Staphylococcus aureus, UniProt A0A0H3JP37); assay: ITC binding to CapF reconstituted with Zn2+ (holo-CapF)
Excerpt: Because tropolone and its analogs have been described as metal chelators in proteins, we anticipated that binding of the inhibitor to CapF is governed by the Zn^2+ ion present in the cupin domain[12]. To confirm this hypothesis, we performed two different types of experiments. First, we determined the binding properties of 3-isopropenyl-tropolone to apo-CapF (i.e. Zn^2+-depleted CapF) and to holo-CapF (reconstituted with Zn^2+) by isothermal titration calorimetry (ITC). The stoichiometry is consistent with a 1:1 binding model.
Figure 3 Binding of 3-isopropenyl-tropolone to CapF requires Zn^2+. CapF (150 μM) reconstituted with Zn^2+ was titrated with 1.65 mM inhibitor in the absence (a) or the presence (b) of 1 mM EDTA. The upper panels correspond to the titration data, and the lower panels to the integrated binding isotherms. (c) Binding competition assay. CapF (1.0 μM) reconstituted with Zn^2+ in the presence of the Zn^2+-sensitive dye FluoZin-3 (1.0 μM) was titrated with 3-isopropenyl-tropolone (λEX = 490 nm; λEM = 520 nm).
Binding constants and thermodynamic parameters of the interaction between CapF and fragment compounds were determined with an iTC200 instrument (GE Healthcare) at 25 °C. Samples were equilibrated in a buffer composed of 10 mM HEPES (pH 7.4) and 150 mM NaCl supplemented with 5% (v/v) DMSO. CapF at 150–270 μM was titrated with compounds at 0.5–1.65 mM. Analysis of the data was performed with ORIGIN7 using a one-site binding model.
Figure S8. Binding isotherms of compounds with CapF as determined by ITC. (a) tropone, (b) 2-Cl-tropone, (c) tropolone, (d) 4-isopropyl-tropolone. Concentration of CapF in the cell was 150 µM, except in panel (a) where it was 270 µM. Concentration of compounds was 1.65 mM, except in panel (a) where it was 0.5 mM. Titrations were performed in an iTC200 instrument at 25 °C.
Data analysis was carried out with ORIGIN.

CapFΔ57-70 = assay: DSC thermal stability of CapFΔ57-70; assay type: binding, Staphylococcus aureus; details: 24 μM protein, 240 μM inhibitor
Method: Thermal stability of CapF was examined by DSC in a ultrasensitive VP-capillary micro-calorimeter (Microcal). Prior to the experiment the protein was equilibrated in a buffer composed of 50 mM HEPES (pH 7.5), 50 mM NaCl and 5% DMSO. The concentration of protein and inhibitor were adjusted to 24 μM and 240 μM, respectively. The samples were heated between 10 and 110 °C at a scan rate of 1 °C/min. Data analysis was carried out with ORIGIN7 using a two-state transition model.
Figure S6. Thermal stability of CapF examined with DSC. (a) CapFΔ57-70, and (b) CapFΔ57-70
in the presence of 3-isopropenyl-tropolone. Concentration of CapF and inhibitor was 24 µM and
240 µM, respectively. Experimental data and fitting curves are represented in black and red lines,
(1 picture or pasted object on this page, not shown here)

holo-CapF (reconstituted with Zn^2+), sequence (A0A0H3JP37 entry or part of it): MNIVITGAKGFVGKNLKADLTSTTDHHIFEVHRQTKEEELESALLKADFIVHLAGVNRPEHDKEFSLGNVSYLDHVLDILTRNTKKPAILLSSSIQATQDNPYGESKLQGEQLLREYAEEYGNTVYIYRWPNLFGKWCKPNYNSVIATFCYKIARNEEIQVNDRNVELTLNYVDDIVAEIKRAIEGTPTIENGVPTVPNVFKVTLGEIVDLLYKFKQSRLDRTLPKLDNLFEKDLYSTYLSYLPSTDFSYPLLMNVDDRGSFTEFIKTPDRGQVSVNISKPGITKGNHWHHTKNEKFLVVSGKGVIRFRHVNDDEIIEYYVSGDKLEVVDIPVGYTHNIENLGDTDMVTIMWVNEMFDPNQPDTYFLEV

C=C(C)c1ccccc(=O)c1O [3-isopropenyl-tropolone]
Kd [1]: 27 ± 12 µM
n (binding stoichiometry) ([1]; ITC, 25 °C): 1.2 ± 0.1
ΔH° ([1]; ITC, 25 °C): -3.4 ± 0.9 kcal/mol
−TΔS° ([1]; ITC, 25 °C): -2.8 ± 1.1 kcal/mol
ligand efficiency (LE = −ΔG/HAC) ([1]; from ITC binding free energy): 0.52 kcal/mol
ΔTM (decrease in thermal stability) (CapFΔ57-70): 6.3 ± 0.2 °C
TM (CapFΔ57-70; CapFΔ57-70 alone 60.7 ± 0.1): 54.4 ± 0.1 °C
